Literature values in paper PMC5572576 (The Lancet. Oncology, 2017).
Like-named read-outs stand apart in the source and are kept apart here.

Experiments:
patients with R/R AML [1] = conditions: cited from earlier work
patients with R/R AML [2] = conditions: cited from earlier work; remark: listed apart in the source
[3] = test system: patients with newly diagnosed AML aged <60 years; conditions: added to intensive chemotherapy; cited from earlier work

CO[C@@H]1[C@H](N(C)C(=O)c2ccccc2)C[C@H]2O[C@]1(C)n1c3ccccc3c3c4c(c5c6ccccc6n2c5c31)C(=O)NC4 [midostaurin]
CR (patients with R/R AML [1]): CR was not achieved | Patients with a reduction in blast counts (patients with R/R AML [1]; patients with FLT3WT): 42% | Patients with a reduction in blast counts (patients with R/R AML [1]; patients with FLT3 mutations): 71%

CC(C)(C)c1cc(NC(=O)Nc2ccc(-c3cn4c(n3)sc3cc(OCCN5CCOCC5)ccc34)cc2)no1 [quizartinib]
Median OS (patients with R/R AML [2]; FLT3-ITD subgroup): 18 weeks | Median OS (patients with R/R AML [2]; entire study population): 14 weeks

CNC(=O)c1cc(Oc2ccc(NC(=O)Nc3ccc(Cl)c(C(F)(F)F)c3)cc2)ccn1 [sorafenib]
3-year event-free survival (EFS) rate [3]: 40%
